Test results taken from ChEMBL document CHEMBL5579815, “Novel angiogenesis inhibitors with superoxide anion radical amplification effect: Surmounting the Achilles' heels of angiogenesis inhibitors and photosensitizers” (Eur J Med Chem, 2024).
Active and inactive are the calls of the source. No cut-off for these calls is given here.

How the values were obtained:
[1] = test system: SK-MEL-28; assay: (§1) Cytotoxicity against human SK-MEL-28 cells assessed as reduction in cell viability preincubated for 24 hrs under hypoxic condition followed by media removal and irradiated with 650 nm 10 mW/cm2 light for 15 mins under hypoxic condition prior to media replacement and measured after 24 hrs by MTT assay; type: functional, cell-based; settings: SK-MEL-28, light or radiation study
[2] = Induction of ROS generation in methanol solution assessed as increase in singlet oxygen level by measuring reduction in ABDA absorption peak at 10 uM irradiated with 650 nm 10 mW/cm2 light for upto 9 mins by ABDA probe based UV-vis absorption spectra analysis; type: functional
[3] = test system: SK-MEL-28; assay: (§2) Induction of apoptosis in human SK-MEL-28 cells assessed as late apoptotic cells at 1 uM preincubated for 24 hrs under normoxic condition followed by media removal and irradiated with 650 nm 10 mW/cm2 light for 15 mins under normoxic condition by Annexin V-FITC/propidium iodide staining based flow cytometry (reference value: 1.95%); type: functional
[4] = test system: SK-MEL-28; assay: as §2, with “early” for “late”, “1.8%)” for “1.95%)”; type: functional
[5] = test system: SK-MEL-28; assay: as §2, with “necrotic” for “late apoptotic”, “hypoxic” for “normoxic”, “2.63%)” for “1.95%)”; type: functional
[6] = test system: SK-MEL-28; assay: as §2, with “as early” for “as late”, “at 2” for “at 1”, “under hypoxic” for “under normoxic”, “value: 1.8%)” for “value: 1.95%)”; type: functional
[7] = test system: HEK293; assay: Dark toxicity in HEK293 cells assessed as reduction in cell viability at 0.078 to 10 uM by MTT assay; type: cell-based; settings: human, hek293, 10 µM; dose 0.078-10 µM
[8] = test system: SK-MEL-28; assay: as §2, with “as viable” for “as late apoptotic”, “at 2” for “at 1”, “under hypoxic” for “under normoxic”, “value: 93.62%)” for “value: 1.95%)”; type: functional; settings: SK-MEL-28, light or radiation study, read-out: Activity
[9] = Drug uptake in human SK-MEL-28 cells at 1 uM measured after 24 hrs by flow cytometry; type: ADME, cell-based; settings: sk-mel-28, 24 h
[10] = test system: SK-MEL-28; assay: as §2, with “as early” for “as late”, “at 2” for “at 1”, “value: 1.8%)” for “value: 1.95%)”; type: functional
[11] = test system: SK-MEL-28; assay: Induction of ROS generation in human SK-MEL-28 cells at 1 uM incubated for 24 hrs under hypoxic condition prior to DHE addition for 30 mins followed by media removal and irradiated with 650 nm 10 mW/cm2 light for 15 mins under hypoxic condition by DAPI staining based fluorescence microscopy; type: functional, cell-based
[12] = test system: SK-MEL-28; assay: as §2, with “as necrotic” for “as late apoptotic”, “at 0.5” for “at 1”, “under hypoxic” for “under normoxic”, “value: 2.63%)” for “value: 1.95%)”; type: functional
[13] = test system: SK-MEL-28; assay: as §2, with “as viable” for “as late apoptotic”, “at 2” for “at 1”, “value: 93.62%)” for “value: 1.95%)”; type: functional; settings: SK-MEL-28, light or radiation study, read-out: Activity
[14] = Dark toxicity in human SK-MEL-28 cells assessed as reduction in cell viability by MTT assay; type: cell-based
[15] = test system: SK-MEL-28; assay: as §1, with “normoxic” for “hypoxic”; type: functional, cell-based; settings: SK-MEL-28, light or radiation study
[16] = test system: SK-MEL-28; assay: as §2, with “at 2” for “at 1”, “under hypoxic” for “under normoxic”; type: functional
[17] = test system: A549; assay: as §1, with “A549” for “SK-MEL-28”, “viability at 0.008 to 1 uM” for “viability”, “normoxic” for “hypoxic”; type: functional, cell-based; settings: dose 0.008-1 µM
[18] = Induction of ROS generation in methanol solution assessed as reduction in DPBF absorption peak at 10 uM irradiated with 650 nm 10 mW/cm2 light for upto 9 mins by DPBF probe based UV-vis absorption spectra analysis; type: functional
[19] = test system: SK-MEL-28; assay: as §2, with “viable” for “late apoptotic”, “93.62%)” for “1.95%)”; type: functional; settings: SK-MEL-28, light or radiation study, read-out: Activity
[20] = test system: SK-MEL-28; assay: as §2, with “hypoxic” for “normoxic”; type: functional
[21] = test system: SK-MEL-28; assay: Induction of apoptosis in human SK-MEL-28 cells preincubated for 24 hrs under hypoxic condition followed by media removal and irradiated with 650 nm 10 mW/cm2 light for 15 mins under hypoxic condition by Annexin V-FITC/propidium iodide staining based flow cytometry; type: functional, cell-based; settings: dose 0.5-2 µM
[22] = test system: EA.hy 926; assay: as §1, with “Antiangiogenic activity in” for “Cytotoxicity against”, “EA.hy 926” for “SK-MEL-28”, “viability at 0.008 to 1 uM” for “viability”; type: functional, cell-based; settings: dose 0.008-1 µM
[23] = Drug uptake in HEK293 cells at 1 uM measured after 24 hrs by flow cytometry; type: ADME, cell-based; settings: human, hek293, 24 h
[24] = test system: SK-MEL-28; assay: as §2, with “as necrotic” for “as late apoptotic”, “at 2” for “at 1”, “under hypoxic” for “under normoxic”, “value: 2.63%)” for “value: 1.95%)”; type: functional
[25] = test system: SK-MEL-28; assay: as §2, with “as early” for “as late”, “at 0.5” for “at 1”, “value: 1.8%)” for “value: 1.95%)”; type: functional
[26] = test system: U-87 MG; assay: as §1, with “U87” for “SK-MEL-28”, “viability at 0.008 to 1 uM” for “viability”, “normoxic” for “hypoxic”; type: functional, cell-based; settings: U-87MG ATCC, dose 0.008-1 µM
[27] = test system: SK-MEL-28; assay: as §2, with “at 2” for “at 1”; type: functional
[28] = Drug uptake in human EA.hy 926 cells at 1 uM measured after 24 hrs by flow cytometry; type: ADME, cell-based; settings: ea.hy 926, 24 h
[29] = test system: SK-MEL-28; assay: as §2, with “as viable” for “as late apoptotic”, “at 0.5” for “at 1”, “value: 93.62%)” for “value: 1.95%)”; type: functional; settings: SK-MEL-28, light or radiation study, read-out: Activity
[30] = test system: EA.hy 926; assay: as §1, with “Antiangiogenic activity in” for “Cytotoxicity against”, “EA.hy 926” for “SK-MEL-28”, “viability at 0.008 to 1 uM” for “viability”, “normoxic” for “hypoxic”; type: functional, cell-based; settings: dose 0.008-1 µM
[31] = test system: SK-MEL-28; assay: as §2, with “early” for “late”, “hypoxic” for “normoxic”, “1.8%)” for “1.95%)”; type: functional
[32] = test system: SK-MEL-28; assay: Induction of ROS generation in human SK-MEL-28 cells at 1 uM incubated for 24 hrs under normoxic condition prior to DHE addition for 30 mins followed by media removal and irradiated with 650 nm 10 mW/cm2 light for 15 mins under normoxic condition by DAPI staining based fluorescence microscopy; type: functional, cell-based

Drug uptake [9]: Active
Drug uptake [23]: Active
Drug uptake [28]: Active
Structure (SMILES): CCN(CC)c1ccc2nc3c4ccccc4/c(=N\CCCCCCNC(=O)c4cc(Oc5ccc(NC(=O)Nc6ccc(Cl)c(C(F)(F)F)c6)cc5)ccn4)cc-3sc2c1
IC50 [1]: 158 nM
Activity [2]: inactive
Activity [3]: 8.8%
Activity [4]: 3.59%
Activity [5]: 19.45%
Activity [6]: 10.55%
Activity [7]: Non-Toxic
viability at 2 µM [8]: 53%
Activity [10]: 39.5%
Activity [11]: Active
Activity [12]: 11.5%
viability at 2 µM [13]: 27.2%
IC50 [14]: > 10000 nM
IC50 [15]: 100 nM
Activity [16]: 17.67%
Activity [17]: Active
Activity [18]: Active
viability at 1 µM [19]: 64.6%
Activity [20]: 7.57%
Activity [21]: Dose-Dependent Effect
Activity [22]: Active
Activity [24]: 18.77%
Activity [25]: 12.86%
Activity [26]: Active
Activity [27]: 26.72%
viability at 0.5 µM [29]: 73.2%
Activity [30]: Active
Activity [31]: 3.97%
Activity [32]: Active
